Experimental data: patent publication US4921855A, “New Histidyl amino acid derivatives, and pharmaceutical composition comprising the same” (Fujisawa Pharmaceutical Co., Ltd., priority 1987, dated 1990)

Molecular target: T1, renin (Homo sapiens, UniProt P00797)
T1 construct: endogenous renin and angiotensinogen in plasma; from tissue; host or cells: pooled human plasma (EDTA) from male volunteers
T1 sequence (P00797 67-406): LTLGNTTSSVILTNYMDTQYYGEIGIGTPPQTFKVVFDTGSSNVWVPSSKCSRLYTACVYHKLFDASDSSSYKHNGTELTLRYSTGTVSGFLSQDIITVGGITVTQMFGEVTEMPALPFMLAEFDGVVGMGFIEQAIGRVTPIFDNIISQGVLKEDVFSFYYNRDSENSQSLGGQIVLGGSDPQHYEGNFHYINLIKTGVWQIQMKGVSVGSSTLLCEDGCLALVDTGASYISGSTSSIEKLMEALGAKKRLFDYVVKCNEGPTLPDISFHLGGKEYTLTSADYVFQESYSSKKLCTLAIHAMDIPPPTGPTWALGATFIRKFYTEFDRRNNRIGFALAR
Experiment: Inhibition of human plasma renin activity (angiotensin I formation, RIA)
Type: biochemical
Conditions: endogenous renin and angiotensinogen, pH 6.0, 37° C, 90 minutes, RIA of Ang I
Description: Human plasma was collected from male volunteers pretreated with no drugs and used as a pool. Disodium salt of ethylenediaminetetraacetic acid (EDTA) was used as the anticoagulant. Plasma renin activity was measured as the rate of angiotensin I (Ang I) formation after incubation (37° C) of the endogenous renin and angiotensinogen in plasma at pH 6.0. The incubation mixture contained 250 μl of plasma, 5 μl of (phenylmethyl)sulfonyl fluoride, 30 μl of buffer (sodium, potassium-phosphate, pH 6.0), and 15 μl of an appropriate concentration of test compound in 50% ethyl alcohol-water vehicle. The Ang I formed after 90 minutes of incubation was measured by radioimmunoassay (RIA) which was carried out with a commercial kit, RENCTK 100 (manufactured by Commissariat A L'energic Atomique). Samples were incubated in duplicate and each tube was measured in duplicate in the RIA. Percentage inhibition of plasma renin activity was calculated by comparing the amount of Ang I produced with and without a test compound. The concentration of test compound that inhibited plasma renin activity by 50% (IC50) was determined by Probit method.

| SMILES | IC50 [nM] |
| --- | --- |
| CC(C)CC[C@H](O)[C@H](CC1CCCCC1)NC(=O)[C@H](Cc1c[nH]cn1)N(C)C(=O)[C@H](Cc1ccccc1)OC(=O)N(C)CCCCC(=O)NC(C)C [(30)] | 6.4 |
| CC(C)CC[C@H](O)[C@H](CC1CCCCC1)NC(=O)[C@H](Cc1c[nH]cn1)N(C)C(=O)[C@H](Cc1ccccc1)OC(=O)N(C)CCC(=O)N(C)CC(C)C [(27)] | 46 |
| CCOC(=O)CNC(=O)CCN(C)C(=O)O[C@@H](Cc1ccccc1)C(=O)N(C)[C@@H](Cc1c[nH]cn1)C(=O)N[C@@H](CC1CCCCC1)[C@@H](O)CCC(C)C [(16)] | 38 |
| CC(C)CC[C@H](O)[C@H](CC1CCCCC1)NC(=O)[C@H](Cc1c[nH]cn1)N(C)C(=O)[C@H](Cc1ccccc1)OC(=O)N(C)CCCC(=O)N(C)C(C)C [(33)] | 17 |
| CC(C)CC[C@H](O)[C@H](CC1CCCCC1)NC(=O)[C@H](Cc1c[nH]cn1)N(C)C(=O)[C@H](Cc1ccccc1)OC(=O)N(C)CC(=O)NCc1ccncc1 [(8)] | 46 |
| CC(C)CC[C@H](O)[C@H](CC1CCCCC1)NC(=O)[C@H](Cc1c[nH]cn1)N(C)C(=O)[C@H](Cc1ccccc1)OC(=O)N(C)CCC(=O)N(C)CCc1ccccn1 [(37)] | 38 |
| CC(C)CC[C@H](O)[C@H](CC1CCCCC1)NC(=O)[C@H](Cc1c[nH]cn1)N(C)C(=O)[C@H](Cc1ccccc1)OC(=O)N(C)CC(=O)OCCc1ccccc1 [(14)] | 48 |
| CC(C)CC[C@H](O)[C@H](CC1CCCCC1)NC(=O)[C@H](Cc1c[nH]cn1)N(C)C(=O)[C@H](Cc1ccccc1)OC(=O)N(C)CCCCC(=O)N1CCOCC1 [(35)] | 5.3 |
| CC(C)CC[C@H](O)[C@H](CC1CCCCC1)NC(=O)[C@H](Cc1c[nH]cn1)N(C)C(=O)[C@H](Cc1ccccc1)OC(=O)N(C)CCCC(=O)N1CCOCC1 [(32)] | 15 |
| CC(C)CC[C@H](O)[C@H](CC1CCCCC1)NC(=O)[C@H](Cc1c[nH]cn1)NC(=O)[C@H](Cc1ccccc1)OC(=O)N(C)N(C)C(=O)N1CCOCC1 [(36)] | 9.8 |
| CC(C)CC[C@H](O)[C@H](CC1CCCCC1)NC(=O)[C@H](Cc1c[nH]cn1)N(C)C(=O)[C@H](Cc1ccccc1)OC(=O)N(C)CCC(=O)N(C)C [(6)] | 41 |
| CC(C)CC[C@H](O)[C@H](CC1CCCCC1)NC(=O)[C@H](Cc1c[nH]cn1)N(C)C(=O)[C@H](Cc1ccccc1)OC(=O)N1CCOCC1 [(2)] | 80 |
| CC(C)CC[C@H](O)[C@H](CC1CCCCC1)NC(=O)[C@H](Cc1c[nH]cn1)N(C)C(=O)[C@H](Cc1ccccc1)OC(=O)N(C)CCN(C)C(=O)CC(C)C [(25)] | 14 |
| CC(C)CC[C@H](O)[C@H](CC1CCCCC1)NC(=O)[C@H](Cc1c[nH]cn1)N(C)C(=O)[C@H](Cc1ccccc1)OC(=O)N1CCN(C)C(=O)C1 [(11)] | 19 |
| CC(C)CC[C@H](O)[C@H](CC1CCCCC1)NC(=O)[C@H](Cc1c[nH]cn1)N(C)C(=O)[C@H](Cc1ccccc1)OC(=O)N1CC(=O)N2CCC[C@H]2C1 [(10)] | 21 |
| CC(C)CC[C@H](O)[C@H](CC1CCCCC1)NC(=O)[C@H](Cc1c[nH]cn1)N(C)C(=O)[C@H](Cc1ccccc1)OC(=O)N1CCNC(=O)C1 [(12)] | 29 |
| CC(C)CC[C@H](O)[C@H](CC1CCCCC1)NC(=O)[C@H](Cc1c[nH]cn1)N(C)C(=O)[C@H](Cc1ccccc1)OC(=O)N(C)CCC(=O)N(C)c1ccccc1 [(26)] | 24 |

Further compounds by falling IC50, results first:

| IC50 [nM] | SMILES |
| --- | --- |
| 70 | CC(C)CC[C@H](O)[C@H](CC1CCCCC1)NC(=O)[C@H](Cc1c[nH]cn1)N(C)C(=O)[C@H](Cc1ccccc1)OC(=O)N(C)N(C)C(=O)OCC(C)C [(20)] |
| 63 | CC(C)CC[C@H](O)[C@H](CC1CCCCC1)NC(=O)[C@H](Cc1c[nH]cn1)N(C)C(=O)[C@H](Cc1ccccc1)OC(=O)N1CCCN1C(=O)NC(C)C [(22)] |
| 57 | CC(C)CC[C@H](O)[C@H](CC1CCCCC1)NC(=O)[C@H](Cc1c[nH]cn1)N(C)C(=O)[C@H](Cc1ccccc1)OC(=O)N(C)CCS(=O)(=O)C(C)C [(40)] |
| 44 | CC(C)CC[C@H](O)[C@H](CC1CCCCC1)NC(=O)[C@H](Cc1c[nH]cn1)N(C)C(=O)[C@H](Cc1ccccc1)OC(=O)N1CCCC(=O)C1 [(28)] |
| 44 | CC(C)CC[C@H](O)[C@H](CC1CCCCC1)NC(=O)[C@H](Cc1c[nH]cn1)N(C)C(=O)[C@H](Cc1ccccc1)OC(=O)N(C)CCC(=O)N1CC=CCC1 [(38)] |
| 43 | CC(C)CC[C@H](O)[C@H](CC1CCCCC1)NC(=O)[C@H](Cc1c[nH]cn1)N(C)C(=O)[C@H](Cc1ccccc1)OC(=O)N(C)N(C)C(=O)NC(C)C [(21)] |
| 40 | CC(C)CC[C@H](O)[C@H](CC1CCCCC1)NC(=O)[C@H](Cc1c[nH]cn1)N(C)C(=O)[C@H](Cc1ccccc1)OC(=O)N(C)CC(=O)N(C)C [(7)] |
| 37 | CC(C)CC[C@H](O)[C@H](CC1CCCCC1)NC(=O)[C@H](Cc1c[nH]cn1)N(C)C(=O)[C@H](Cc1ccccc1)OC(=O)N(C)CCC(=O)NC(C)C [(39)] |
| 34 | CC(C)CC[C@H](O)[C@H](CC1CCCCC1)NC(=O)[C@H](Cc1c[nH]cn1)N(C)C(=O)[C@H](Cc1ccccc1)OC(=O)N(C)CC(=O)OCC(C)C [(13)] |
| 33 | COC(=O)CN(C)C(=O)O[C@@H](Cc1ccccc1)C(=O)N(C)[C@@H](Cc1c[nH]cn1)C(=O)N[C@@H](CC1CCCCC1)[C@@H](O)CCC(C)C [(3)] |
| 33 | CC(C)CC[C@H](O)[C@H](CC1CCCCC1)NC(=O)[C@H](Cc1c[nH]cn1)N(C)C(=O)[C@H](Cc1ccccc1)OC(=O)N(C)CCC(=O)NCc1ccccn1 [(17)] |
| 33 | CC(=O)COC(=O)CN(C)C(=O)O[C@@H](Cc1ccccc1)C(=O)N(C)[C@@H](Cc1c[nH]cn1)C(=O)N[C@@H](CC1CCCCC1)[C@@H](O)CCC(C)C [(15)] |
| 30 | CC(C)CC[C@H](O)[C@H](CC1CCCCC1)NC(=O)[C@H](Cc1c[nH]cn1)N(C)C(=O)[C@H](Cc1ccccc1)OC(=O)N(C)CCC(=O)N1CCSCC1 [(18)] |
| 30 | CC(C)CC[C@H](O)[C@H](CC1CCCCC1)NC(=O)[C@H](Cc1c[nH]cn1)N(C)C(=O)[C@H](Cc1ccccc1)OC(=O)N1CCC[C@@H]1C(=O)N(C)C [(9)] |
| 19 | CC(C)CC[C@H](O)[C@H](CC1CCCCC1)NC(=O)[C@H](Cc1c[nH]cn1)NC(=O)[C@H](Cc1ccccc1)OC(=O)N1CCOCC1 [(1)] |
| 16 | CC(C)CC[C@H](O)[C@H](CC1CCCCC1)NC(=O)[C@H](Cc1c[nH]cn1)N(C)C(=O)[C@H](Cc1ccccc1)OC(=O)N(C)CCCCC(=O)N(C)C(C)C [(29)] |
| 13 | COC(=O)[C@H]1CCCN1C(=O)O[C@@H](Cc1ccccc1)C(=O)N(C)[C@@H](Cc1c[nH]cn1)C(=O)N[C@@H](CC1CCCCC1)[C@@H](O)CCC(C)C [(4)] |
| 13 | CC(C)CC[C@H](O)[C@H](CC1CCCCC1)NC(=O)[C@H](Cc1c[nH]cn1)N(C)C(=O)[C@H](Cc1ccccc1)OC(=O)N(C)CCCN(C)C(=O)N1CCOCC1 [(31)] |
| 7.5 | CC(C)CC[C@H](O)[C@H](CC1CCCCC1)NC(=O)[C@H](Cc1c[nH]cn1)N(C)C(=O)[C@H](Cc1ccccc1)OC(=O)N(C)CCCCN(C)C(=O)N1CCOCC1 [(34)] |
| 4.8 | CC(C)CC[C@H](O)[C@H](CC1CCCCC1)NC(=O)[C@H](Cc1c[nH]cn1)NC(=O)[C@H](Cc1ccccc1)OC(=O)N(C)CCC(=O)N1CCOCC1 [(19)] |
